In article PMC9104013, “Role of Polyamine-Induced Dimerization of Antizyme in Its Cellular Functions” (International Journal of Molecular Sciences, 2022):
pKd: −log10 of the molar value.

How the values were obtained:
[1] = target: T1, mouse OAZ1 (mOAZ1) (Mus musculus, UniProt P54369); assay: Isothermal titration calorimetry of polyamines binding to mOAZ1; settings: for ΔH (enthalpy variation) / Ka (affinity constant): pH 7.5; for ΔH (enthalpy variation): SD did not exceed ±20%; for Ka (affinity constant): SD did not exceed ±25%; for Binding to mOAZ1: under the conditions used; for pKd: read-out: Kd (dissociation constant); for TΔS (entropy variation): calculated from TΔS = ΔH + RTlnKa
T1 construct: Full-length mOAZ1 protein was successfully produced in E. coli; made in house; host or cells: Escherichia coli Rosetta (DE3)
Description: For the precise isothermal titration calorimetry (ITC) experiments only freshly purified samples turned out to be suitable. The thermodynamic parameters of polyamines binding to OAZ1 were measured using a MicroCal iTC200 instrument (GE Healthcare, Chicago, IL, USA) as described elsewhere. Experiments were carried out at 31 °C in buffer containing 25 mM potassium phosphate, pH 7.5; 150 mM KCl; 25% (v/v) glycerol; 1 mM 2-mercaptoethanol; and 1 mM PMSF. Aliquots (2.5 μL) of ligands were injected into a 0.2 mL cell containing the protein solution to achieve a complete binding isotherm. Protein and ligand concentrations were 20 μM and 200 μM, respectively. The heat of dilution was measured by injection of the ligand into the buffer solution or by additional injections of ligand after saturation; the values obtained were subtracted from the heat of reaction to obtain the effective heat of binding. The resulting titration curves were fitted using the MicroCal Origin software, assuming one set of binding sites. Affinity constants (Ka) and enthalpy variations (ΔH) were determined, and the entropy variations (ΔS) were calculated from the equation: TΔS = ΔH + RTlnKa.

[2] = target: T2, recombinant mOAZ1 protein (Mus musculus, UniProt P54369); assay: Electrophoresis of mOAZ1-Polyamine complex (0.01% SDS in running buffer); format: binding; settings: 200 μM polyamine, 30 min, 20 °C, pH 7.5
T2 construct: Full-length mOAZ1 protein was successfully produced in E. coli; made in house; host or cells: Escherichia coli Rosetta (DE3)
Description: The recombinant mOAZ1 protein (1 μg/band) was incubated with 200 μM of a polyamine at room temperature for 30 min. Then the sample was quenched with a loading buffer (200 mM Tris-HCl, pH 6.8, 0.01% bromophenol blue, and 40% glycerol) and applied onto 12% polyacrylamide gel lacking SDS. Electrophoresis was carried out in a running buffer with decreased SDS concentration (25 mM Tris base; 250 mM glycine; and 0.01% SDS) at 70 V. The gel was stained with Coomassie R-250.

[3] = tested on: OAZ1 protein; set-up: method as in PMID 11972449; settings: HTC cells; cited from earlier work
[4] = calculated as 1/Ka, no binding = not detected, Kd > 50 μM not detectable

T1 sequence (P54369 whole entry): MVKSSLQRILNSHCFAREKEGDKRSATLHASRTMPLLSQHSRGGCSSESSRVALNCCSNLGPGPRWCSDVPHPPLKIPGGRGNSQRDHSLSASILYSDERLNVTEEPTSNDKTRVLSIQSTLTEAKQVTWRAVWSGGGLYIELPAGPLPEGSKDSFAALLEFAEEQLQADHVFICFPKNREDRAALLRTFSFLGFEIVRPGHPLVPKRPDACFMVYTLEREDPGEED
T2 sequence (P54369 whole entry): as above

| Structure (SMILES) | ΔH (enthalpy variation) ([1]; ITC, 31 °C) | Ka (affinity constant) ([1]; ITC, 31 °C) | Binding to mOAZ1 ([1]; ITC) | pKd [1, 4] | TΔS (entropy variation) [1] | Formation of (mOAZ1)2-Polyamine complex / dimerization [2] | Half-life of OAZ1 protein [3] | Stoichiometry mOAZ1/Polyamine ([1]; ITC, 31 °C, pH 7.5, 150 mM KCl, 25% glycerol, protein 20 μM, ligand 200 μM) | Kd (dissociation constant) [1, 4] |
| --- | --- | --- | --- | --- | --- | --- | --- | --- | --- |
| CCNCCCNCCCNCCCNCC [DENSpm, N^1,N^11-diethylnorspermine] | -5.1 kcal/mol | 750000 M⁻¹ | bound to mOAZ1 | 5.89 | 3.0 kcal/mol |  |  |  |  |
| NCCCNCCCCNCCCN [Spm, spermine] | -3.7 kcal/mol | 920000 M⁻¹ | bound to mOAZ1 | 5.96 | 4.5 kcal/mol | induce dimerization of OAZ1 | did not increase the half-life of OAZ1 protein |  |  |
| NCCCCN [Put, putrescine] | No binding ^f | No binding ^f | did not |  | No binding ^f |  |  | No binding ^f | No binding ^f |
| CCNCCCCNCCCCNCCCCNCCCCNC/C=C/CNCCCCNCCCCNCCCCNCCCCNCC [SL-11144] |  |  |  |  |  |  | did not increase the half-life of OAZ1 protein |  |  |
